{
  "source": "patent US20090023733A1",
  "about": "“Piperidine Derivatives, Their Process for Preparation, Their Use as Therapeutic Agents and Pharmaceutical Compositions Containing Them” (priority 2006, published 2009)",
  "key": {"[1]": {"test": "Determination of intrinsic clearance with human liver microsomes", "assay_type": "in vitro ADME", "conditions": "human liver microsomes 1 mg protein/ml, NADPH, pH 7.4; CLint=ln 2/T1/2", "method": "Determination of Intrinsic Clearance with Human Liver Microsomes\nFrozen human liver microsomes (BD Gentest, Oxford) were defrosted and were then diluted with 0.1 M pH 7.4 phosphate buffer at 4° C. to 1 mg protein/ml. 0.45 mL aliquots of the microsome suspension were dispensed into flat-bottomed vials (1 per compound) and were allowed to come to room temperature (5 min). During the warming time, 5 μL of solution of each test compound (typically 100 μM in DMSO) was dispensed into separate vials resulting in a final DMSO concentration of 1%. 50 μL of a 10 mM solution of NADPH in phosphate buffer ([…] pH 7.4, 37° C.) was added to each vial to initiate metabolism.\n50 μL Aliquots of the mixtures were removed at measured intervals and were immediately quenched by addition to 100 μL of methanol cooled in ice. The quenched samples were kept cold (at −20° C. or less) for at least 1 h and were then centrifuged to remove protein.\nThe supernatant solution was analysed using quantitative LCMS for the presence of test compound. From the concentrations of test compound at different time points a T1/2 may be calculated which may be converted to an intrinsic clearance using the equation: CLint=ln 2/T1/2."}, "[2]": {"target": "T1, human recombinant CCR3 receptors (Homo sapiens, UniProt P51677)", "T1 construct": "expressed in transfected cells", "T1 sequence (P51677 1-355)": "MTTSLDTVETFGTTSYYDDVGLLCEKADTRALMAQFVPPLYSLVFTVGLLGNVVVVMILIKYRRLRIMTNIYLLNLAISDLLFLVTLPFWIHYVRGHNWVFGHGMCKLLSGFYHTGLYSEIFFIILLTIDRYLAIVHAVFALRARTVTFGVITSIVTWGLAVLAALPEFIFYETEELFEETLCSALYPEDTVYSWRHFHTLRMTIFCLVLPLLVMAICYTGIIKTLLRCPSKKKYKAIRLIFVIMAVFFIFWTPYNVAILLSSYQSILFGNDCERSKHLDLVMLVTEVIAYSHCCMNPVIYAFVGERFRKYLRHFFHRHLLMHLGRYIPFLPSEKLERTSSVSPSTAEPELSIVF", "test": "Compound affinity at human recombinant CCR3 receptors by competition of [3H]-4-(2,4-dichloro-3-methylphenoxy)-1'-[4-(methylsulfonyl)benzoyl]-1,4'-bipiperidine, CHO-K1 cell membranes", "assay_type": "binding", "conditions": "mean pKi (Cheng-Prussof correction of pIC50), minimum of 2 experiments, recombinant human CCR3, 2 nM radioligand, 2 h at 37° C.", "method": "Determination of Compound Affinity at Human Recombinant CCR3 Receptors Assessed By Competition Of [^3H]-4-(2,4-dichloro-3-methylphenoxy)-1′-[4-(methylsulfonyl)benzoyl]-1,4′-bipiperidine for CHO—K1 Cell Membranes In Vitro\nMembranes, prepared from CHO—K1 cells stably expressing recombinant human CCR3, suspended in assay buffer (50 mM Tris-Base, pH 7.4; containing sodium chloride (100 mM) and magnesium chloride (2 mM)) were incubated in the presence of 2 nM [^3H]-4-(2,4-dichloro-3-methylphenoxy)-1′-[4-(methylsulfonyl)benzoyl]-1,4′-bipiperidine, along with vehicle (1% (v/v) DMSO), 4-(4-chloro-3-methylphenoxy)-1′-[2-(methylsulfonyl)benzoyl]-1,4′-bipiperidine (to define non-specific binding) or test compound for 2 h at 37° C. in round bottomed 96-well plates. The plates were then filtered onto GF/B filter plates, pre-soaked for 1 hour in plate-coating solution (0.3% (w/v) polyethylenimine, 0.2% (w/v) BSA in de-ionised water), using a 96-well plate Tomtec cell harvester. Four washes (250 μL) with wash buffer (50 mM Tris-Base, pH 7.4 containing sodium chloride (500 mM) and magnesium chloride (2 mM)) were performed at 4° C. to remove unbound radioactivity. Plates were dried and MicroScint-O (50 μL) was added to each well. The plates were sealed (TopSeal A) and filter-bound radioactivity was measured with a scintillation counter (TopCount, Packard BioScience) using a 1 minute counting protocol.\nSpecific binding was determined from values of the control wells minus the values for the NSB wells for each assay plate. pIC50 values were calculated using a four parameter logistic fit (where pIC50 is defined as the negative logarithm of the concentration of compound required for 50% reduction in specific [^3H]-4-(2,4-dichloro-3-methylphenoxy)-1′-[4-(methylsulfonyl)benzoyl]-1,4′-bipiperidine binding). Data were presented as mean pKi values (calculated by applying a Cheng-Prussof correction to pIC50 values) from a minimum of 2 separate experiments."}},
  "note": "pKi: −log10 of the molar value.",
  "data": [
    {"compound": "O=C(CSc1ccccc1C(=O)O)NC1CCN(Cc2ccc(Cl)c(Cl)c2)CC1", "note": "[Example 1, 2-[(2-{[1-(3,4-Dichlorobenzyl)piperidin-4-yl]amino}-2-oxoethyl)thio]benzoic acid]", "values": [
      {"measurement": "CLint scaled at 1 µM", "setting": "[1]", "result": "< 3", "unit": "mL/min/kg"},
      {"measurement": "pKi", "setting": "[2]", "result": 6.60}
    ]},
    {"compound": "O=C(CSc1cccc(C(=O)O)c1)NC1CCN(Cc2ccc(Cl)c(Cl)c2)CC1", "note": "[Example 4, 3-[(2-{[1-(3,4-Dichlorobenzyl)piperidin-4-yl]amino}-2-oxoethyl)thio]benzoic acid]", "values": [
      {"measurement": "CLint scaled at 1 µM", "setting": "[1]", "result": "< 3", "unit": "mL/min/kg"},
      {"measurement": "pKi", "setting": "[2]", "result": 7.90}
    ]},
    {"compound": "O=C(CSc1ccc(C(=O)O)cc1)NC1CCN(Cc2ccc(Cl)c(Cl)c2)CC1", "note": "[Example 7, 4-[(2-{[1-(3,4-Dichlorobenzyl)piperidin-4-yl]amino}-2-oxoethyl)thio]benzoic acid]", "values": [
      {"measurement": "CLint scaled at 1 µM", "setting": "[1]", "result": "< 3", "unit": "mL/min/kg"},
      {"measurement": "pKi", "setting": "[2]", "result": 8.20}
    ]},
    {"compound": "O=C(CSc1ccc(C(=O)O)cc1CN1CCOCC1)NC1CCN(Cc2ccc(Cl)c(Cl)c2)CC1", "note": "[Example 18, 4-[(2-{[1-(3,4-Dichlorobenzyl)piperidin-4-yl]amino}-2-oxoethyl)thio]-3-(morpholin-4-ylmethyl)benzoic acid]", "values": [
      {"measurement": "CLint scaled at 1 µM", "setting": "[1]", "result": 30, "unit": "mL/min/kg"},
      {"measurement": "pKi", "setting": "[2]", "result": 7.90}
    ]}
  ]
}
